From BindingDB's records for doi:10.1016/j.bmcl.2010.02.003 (Boehringer Ingelheim (Canada), 2010)

Legend:
Cytochrome P450 1A2 = target: T1, Cytochrome P450 1A2 (Homo sapiens, UniProt P05177); experiment: Inhibition of CYP1A2
T1 sequence (P05177 whole entry): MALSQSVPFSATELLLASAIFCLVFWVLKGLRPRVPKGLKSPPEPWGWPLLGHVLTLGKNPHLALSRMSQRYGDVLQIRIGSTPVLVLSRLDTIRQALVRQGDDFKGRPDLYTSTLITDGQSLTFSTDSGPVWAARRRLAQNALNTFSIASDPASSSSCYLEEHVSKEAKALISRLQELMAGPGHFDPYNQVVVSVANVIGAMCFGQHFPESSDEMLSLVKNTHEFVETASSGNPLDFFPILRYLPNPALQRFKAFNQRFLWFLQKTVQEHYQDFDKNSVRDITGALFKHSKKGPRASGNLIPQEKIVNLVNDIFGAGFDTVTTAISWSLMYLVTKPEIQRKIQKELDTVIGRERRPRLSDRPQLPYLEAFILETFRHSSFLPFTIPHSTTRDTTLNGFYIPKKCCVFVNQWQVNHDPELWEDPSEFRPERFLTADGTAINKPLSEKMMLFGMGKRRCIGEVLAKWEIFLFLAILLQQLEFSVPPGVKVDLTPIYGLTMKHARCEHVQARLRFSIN

Cytochrome P450 3A4 = Cytochrome P450 3A4 (Homo sapiens, UniProt P08684); experiment: Inhibition of CYP3A4
Cytochrome P450 2D6 = Cytochrome P450 2D6 (Homo sapiens, UniProt P10635); experiment: Inhibition of CYP2D6
Cytochrome P450 2D6, sequence (P10635 whole entry): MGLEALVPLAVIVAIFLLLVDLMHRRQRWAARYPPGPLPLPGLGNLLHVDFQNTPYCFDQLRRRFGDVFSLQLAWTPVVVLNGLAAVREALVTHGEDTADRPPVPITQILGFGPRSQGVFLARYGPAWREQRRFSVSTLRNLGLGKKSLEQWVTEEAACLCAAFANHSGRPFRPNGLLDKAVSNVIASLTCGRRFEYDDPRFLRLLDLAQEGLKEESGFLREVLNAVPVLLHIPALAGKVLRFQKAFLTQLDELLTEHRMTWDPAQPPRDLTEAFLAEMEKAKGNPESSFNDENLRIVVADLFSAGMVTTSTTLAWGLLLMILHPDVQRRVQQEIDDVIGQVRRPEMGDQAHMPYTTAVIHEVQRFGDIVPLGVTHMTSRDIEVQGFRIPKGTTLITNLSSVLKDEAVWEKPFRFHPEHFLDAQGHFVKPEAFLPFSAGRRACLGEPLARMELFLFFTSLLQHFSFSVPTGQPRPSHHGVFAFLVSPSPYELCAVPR

Cytochrome P450 3A4, sequence (P08684 whole entry): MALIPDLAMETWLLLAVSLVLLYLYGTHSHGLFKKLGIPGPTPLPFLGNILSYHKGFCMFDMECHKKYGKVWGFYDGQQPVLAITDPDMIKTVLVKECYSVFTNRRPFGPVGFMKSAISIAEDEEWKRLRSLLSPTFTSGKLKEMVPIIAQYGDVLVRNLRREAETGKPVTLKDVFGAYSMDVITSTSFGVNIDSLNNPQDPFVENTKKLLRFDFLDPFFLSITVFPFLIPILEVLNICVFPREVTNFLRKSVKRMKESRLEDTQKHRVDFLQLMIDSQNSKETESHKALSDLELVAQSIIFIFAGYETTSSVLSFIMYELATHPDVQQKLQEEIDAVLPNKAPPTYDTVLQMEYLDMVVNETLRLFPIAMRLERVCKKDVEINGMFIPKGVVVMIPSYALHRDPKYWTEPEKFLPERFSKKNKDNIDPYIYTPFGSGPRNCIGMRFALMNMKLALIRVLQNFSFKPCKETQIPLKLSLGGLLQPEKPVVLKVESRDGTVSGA

With `O=C(N[C@@H](Cc1c[nH]c2ccc(O)cc12)c1cscn1)c1ccc2c(c1)nc(-c1ccoc1)n2C1CCCCC1` [1-cyclohexyl-2-(furan-3-yl)-N-((S)-2-(5-hydroxy-1H-indol-3-yl)-1-(thiazol-4-yl)ethyl)-1H-benzo[d]imidazole-5-carboxamide] the IC50 (Cytochrome P450 1A2) was > 30 µM.

With `O=C(O)/C=C/c1ccc(NC(=O)C2(NC(=O)c3ccc4c(c3)nc(-c3ccoc3)n4C3CCCCC3)CCCC2)cc1` [3-(4-(1-(1-cyclohexyl-2-(furan-3-yl)-1H-benzo[d]imidazole-5-carboxamido)cyclopentanecarboxamido)phenyl)acrylic acid] the IC50 (Cytochrome P450 3A4) was > 30 µM, the IC50 (Cytochrome P450 1A2) was > 30 µM and the IC50 (Cytochrome P450 2D6) was > 30 µM.

With `O=C(O)/C=C/c1ccc(NC(=O)C2(NC(=O)c3ccc4c(c3)nc(-c3ccccn3)n4C3CCCCC3)CCCC2)cc1` [3-(4-(1-(1-cyclohexyl-2-(pyridin-2-yl)-1H-benzo[d]imidazole-5-carboxamido)cyclopentanecarboxamido)phenyl)acrylic acid] the IC50 (Cytochrome P450 3A4) was > 30 µM, the IC50 (Cytochrome P450 1A2) was > 30 µM and the IC50 (Cytochrome P450 2D6) was > 30 µM.
